Measurements as given in ChEMBL document CHEMBL3885861, “Open TG-GATES”.

Organism: Rattus norvegicus
Experiment: Open TG-GATES - Regimen: Single
Assay type: toxicity, organism-based, Sprague-Dawley
Set-up: regimen Single, gender Male, age 6 weeks
Conditions: in vivo, po, 600 mg/kg, route gavage, dose level Middle; for APTT / Bas / Eos / Fbg / Hb / Ht / Lym / MCH / MCHC / MCV / Mono / Neu / PT / Plat / RBC / Ret / WBC: tissue Blood; for KIDNEY_L / KIDNEY_R / KIDNEY_TOTAL: tissue Kidney; for LIVER: tissue Liver; for A/G / ALP / ALT / AST / BUN / CRE / Ca / Cl / DBIL / GLC / IP / K / LDH / Na / PL / RALB / TBIL / TC / TG / TP / gamma-GTP: tissue Plasma

NNC(=O)c1ccncc1 [ISONIAZID]
TERMINAL_BW (3 h): 221.5 g | APTT (3 h): 19.8 s | Bas (3 h): 0% | Eos (3 h): 1% | Fbg (3 h): 231 mg/dL | Hb (3 h): 13.7 g/dL | Ht (3 h): 37.8% | Lym (3 h): 72.6% | MCH (3 h): 22 pg | MCHC (3 h): 36.2% | MCV (3 h): 60.8 fL | Mono (3 h): 2.4% | Neu (3 h): 23.2% | PT (3 h): 12.2 s | Plat (3 h): 125.7 x10_4/uL | RBC (3 h): 622.4 x10_4/ul | Ret (3 h): 7.4% | WBC (3 h): 67.3 x10_2/uL | KIDNEY_L (3 h): 0.9 g | KIDNEY_R (3 h): 0.9 g | KIDNEY_TOTAL (3 h): 1.9 g | LIVER (3 h): 9.6 g | A/G (3 h): 1.7 | ALP (3 h): 950 IU/L | ALT (3 h): 39.6 IU/L | AST (3 h): 73.6 IU/L | BUN (3 h): 9 mg/dL | CRE (3 h): 0.4 mg/dL | Ca (3 h): 10.3 mg/dL | Cl (3 h): 104 meq/L | DBIL (3 h): 0.064 mg/dL | GLC (3 h): 197.6 mg/dL | IP (3 h): 10 mg/dL | K (3 h): 3.7 meq/L | LDH (3 h): 177.2 IU/L | Na (3 h): 141.4 meq/L | PL (3 h): 134.8 mg/dL | RALB (3 h): 3.6 g/dL | TBIL (3 h): 0.1 mg/dL | TC (3 h): 78.2 mg/dL | TG (3 h): 49.6 mg/dL | TP (3 h): 5.7 g/dL | gamma-GTP (3 h): 1 IU/L | TERMINAL_BW (6 h): 219.2 g | APTT (6 h): 18.4 s | Bas (6 h): 0% | Eos (6 h): 0.8% | Fbg (6 h): 223.4 mg/dL | Hb (6 h): 13.6 g/dL | Ht (6 h): 37.9% | Lym (6 h): 78.8% | MCH (6 h): 22 pg | MCHC (6 h): 36% | MCV (6 h): 61.3 fL | Mono (6 h): 1.8% | Neu (6 h): 17.6% | PT (6 h): 12.2 s | Plat (6 h): 133.3 x10_4/uL | RBC (6 h): 619 x10_4/ul | Ret (6 h): 7.6% | WBC (6 h): 75.7 x10_2/uL | KIDNEY_L (6 h): 1 g | KIDNEY_R (6 h): 1 g | KIDNEY_TOTAL (6 h): 1.9 g | LIVER (6 h): 9.6 g | A/G (6 h): 1.6 | ALP (6 h): 838.6 IU/L | ALT (6 h): 27.6 IU/L | AST (6 h): 52.2 IU/L | BUN (6 h): 9.4 mg/dL | CRE (6 h): 0.4 mg/dL | Ca (6 h): 10.3 mg/dL | Cl (6 h): 104.6 meq/L | DBIL (6 h): 0.066 mg/dL | GLC (6 h): 210 mg/dL | IP (6 h): 9.3 mg/dL | K (6 h): 3.6 meq/L | LDH (6 h): 202.8 IU/L | Na (6 h): 142.8 meq/L | PL (6 h): 142.2 mg/dL | RALB (6 h): 3.5 g/dL | TBIL (6 h): 0.1 mg/dL | TC (6 h): 71 mg/dL | TG (6 h): 90.4 mg/dL | TP (6 h): 5.8 g/dL | gamma-GTP (6 h): 1 IU/L | TERMINAL_BW (9 h): 219.9 g | APTT (9 h): 17.5 s | Bas (9 h): 0% | Eos (9 h): 0.8% | Fbg (9 h): 222.8 mg/dL | Hb (9 h): 13.5 g/dL | Ht (9 h): 37.4% | Lym (9 h): 70.6% | MCH (9 h): 21.9 pg | MCHC (9 h): 36.1% | MCV (9 h): 60.6 fL | Mono (9 h): 1.6% | Neu (9 h): 26% | PT (9 h): 12.3 s | Plat (9 h): 116 x10_4/uL | RBC (9 h): 616.6 x10_4/ul | Ret (9 h): 7.1% | WBC (9 h): 71.5 x10_2/uL | KIDNEY_L (9 h): 1 g | KIDNEY_R (9 h): 1 g | KIDNEY_TOTAL (9 h): 2 g | LIVER (9 h): 8.8 g | A/G (9 h): 1.5 | ALP (9 h): 752.2 IU/L | ALT (9 h): 23.2 IU/L | AST (9 h): 44.6 IU/L | BUN (9 h): 7.8 mg/dL | CRE (9 h): 0.4 mg/dL | Ca (9 h): 10.3 mg/dL | Cl (9 h): 105 meq/L | DBIL (9 h): 0.066 mg/dL | GLC (9 h): 200.6 mg/dL | IP (9 h): 9 mg/dL | K (9 h): 3.8 meq/L | LDH (9 h): 203.6 IU/L | Na (9 h): 142.6 meq/L | PL (9 h): 152.8 mg/dL | RALB (9 h): 3.4 g/dL | TBIL (9 h): 0.1 mg/dL | TC (9 h): 78.2 mg/dL | TG (9 h): 74.6 mg/dL | TP (9 h): 5.7 g/dL | gamma-GTP (9 h): 1 IU/L | TERMINAL_BW (24 h): 215.6 g | APTT (24 h): 19.7 s | Bas (24 h): 0.4% | Eos (24 h): 0.8% | Fbg (24 h): 218.6 mg/dL | Hb (24 h): 14.5 g/dL | Ht (24 h): 39.6% | Lym (24 h): 86.4% | MCH (24 h): 22.4 pg | MCHC (24 h): 36.7% | MCV (24 h): 61 fL | Mono (24 h): 2.4% | Neu (24 h): 8.8% | PT (24 h): 12.9 s | Plat (24 h): 139.5 x10_4/uL | RBC (24 h): 649.2 x10_4/ul | Ret (24 h): 3.7% | WBC (24 h): 85.9 x10_2/uL | KIDNEY_L (24 h): 1 g | KIDNEY_R (24 h): 1 g | KIDNEY_TOTAL (24 h): 2.1 g | LIVER (24 h): 9.8 g | A/G (24 h): 1.7 | ALP (24 h): 817.6 IU/L | ALT (24 h): 15.2 IU/L | AST (24 h): 32.2 IU/L | BUN (24 h): 17.8 mg/dL | CRE (24 h): 0.4 mg/dL | Ca (24 h): 10.6 mg/dL | Cl (24 h): 104.4 meq/L | DBIL (24 h): 0.06 mg/dL | GLC (24 h): 189.2 mg/dL | IP (24 h): 8.9 mg/dL | K (24 h): 3.9 meq/L | LDH (24 h): 202.4 IU/L | Na (24 h): 143.4 meq/L | PL (24 h): 123.2 mg/dL | RALB (24 h): 3.6 g/dL | TBIL (24 h): 0.1 mg/dL | TC (24 h): 58.6 mg/dL | TG (24 h): 69.6 mg/dL | TP (24 h): 5.7 g/dL | gamma-GTP (24 h): 1 IU/L
